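Grown in 96-well plates, cells were treated for 48 hours with each compound at five concentrations. Insufficient inhibition: endpoint recorded as highest concentration tested. Here, GI50 denotes the concentration required for 50% inhibition of growth.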 Activity calls are given as the source filed them. No stated cut-off is given here; in the data, active = GI50 up to about 1.1 µM and inactive = higher.
What was measured:
Assay in all cases: inhibition of tumour cell growth, NCI panel, 48 h
[1] = test system: 786-0
[2] = test system: A498
[3] = test system: A549
[4] = test system: ACHN
[5] = test system: BT-549
[6] = test system: CAKI-1
[7] = test system: COLO 205
[8] = test system: DU-145
[9] = test system: EKVX
[10] = test system: HCC 2998
[11] = test system: HCT-116
[12] = test system: HCT-15
[13] = test system: HL-60
[14] = test system: HOP-62
[15] = test system: HOP-92
[16] = test system: HT-29
[17] = test system: Hs-578T
[18] = test system: IGROV-1
[19] = test system: K562
[20] = test system: KM12
[21] = test system: LOX IMVI
[22] = test system: M14
[23] = test system: MCF7
[24] = test system: MDA-MB-231
[25] = test system: MDA-MB-435
[26] = test system: MDA-N
[27] = test system: MOLT-4
[28] = test system: Malme-3M
[29] = test system: NCI-H226
[30] = test system: NCI-H23
[31] = test system: NCI-H460
[32] = test system: NCI-H522
[33] = test system: NCI/ADR-RES
[34] = test system: OVCAR-3
[35] = test system: OVCAR-4
[36] = test system: OVCAR-5
[37] = test system: OVCAR-8
[38] = test system: PC-3
[39] = test system: RPMI-8226
[40] = test system: RXF 393
[41] = test system: SF-268
[42] = test system: SF-295
[43] = test system: SF-539
[44] = test system: SK-MEL-28
[45] = test system: SK-MEL-2
[46] = test system: SK-MEL-5
[47] = test system: SK-OV-3
[48] = test system: SN12C
[49] = test system: SNB-19
[50] = test system: SNB-75
[51] = test system: SR
[52] = test system: SW-620
[53] = test system: T47D
[54] = test system: TK-10
[55] = test system: U-251
[56] = test system: UACC-257
[57] = test system: UACC-62
[58] = test system: UO-31
[59] = test system: CCRF-CEM

In the case of `COc1cc(/C=N/c2nc3cc4sc(/N=C/c5cc(OC)c(OC)c(OC)c5)nc4cc3s2)cc(OC)c1OC`, the GI50 [1] was 49.2 µM (inactive), the GI50 [2] was > 100 µM (inactive) and the GI50 [3] was 40.5 µM (inactive). For the same molecule, the GI50 [4] was > 100 µM (inactive), the GI50 [5] was > 100 µM (inactive) and the GI50 [6] was > 100 µM (inactive). For the same molecule, the GI50 [7] was 28.4 µM (inactive), the GI50 [8] was > 100 µM (inactive) and the GI50 [9] was 42 µM (inactive). The GI50 [10] was > 100 µM (inactive), the GI50 [11] was 39.4 µM (inactive) and the GI50 [12] was 55.2 µM. For the same molecule, the GI50 [13] was 57.1 µM (inactive), the GI50 [14] was 57.1 µM (inactive) and the GI50 [15] was > 100 µM (inactive). For the same molecule, the GI50 [16] was 52.7 µM (inactive), the GI50 [17] was > 100 µM (inactive) and the GI50 [18] was > 100 µM (inactive). For the same molecule, the GI50 [19] was 50.1 µM (inactive), the GI50 [20] was 52.1 µM (inactive) and the GI50 [21] was 42.9 µM (inactive). The GI50 [22] was 66.8 µM (inactive), the GI50 [23] was 53.8 µM (inactive) and the GI50 [24] was 79.4 µM (inactive). The GI50 [25] was 39.1 µM (inactive), the GI50 [26] was 27 µM (inactive) and the GI50 [27] was 31.3 µM (inactive). For the same molecule, the GI50 [28] was > 100 µM (inactive), the GI50 [29] was 31.4 µM (inactive) and the GI50 [30] was 56.1 µM (inactive). For the same molecule, the GI50 [31] was 21.5 µM (inactive), the GI50 [32] was 45.8 µM (inactive) and the GI50 [33] was 34.1 µM (inactive). For the same molecule, the GI50 [34] was 32.7 µM (inactive), the GI50 [35] was > 100 µM (inactive) and the GI50 [36] was > 100 µM (inactive). For the same molecule, the GI50 [37] was 95.5 µM (inactive), the GI50 [38] was 52.1 µM (inactive) and the GI50 [39] was 51.2 µM (inactive). For the same molecule, the GI50 [40] was > 100 µM (inactive), the GI50 [41] was 89.1 µM (inactive) and the GI50 [42] was 56.8 µM (inactive). For the same molecule, the GI50 [43] was 17.9 µM (inactive), the GI50 [44] was 21.7 µM (inactive) and the GI50 [45] was 72.4 µM (inactive). For the same molecule, the GI50 [46] was 37.1 µM (inactive), the GI50 [47] was > 100 µM (inactive) and the GI50 [48] was 43 µM (inactive). For the same molecule, the GI50 [49] was > 100 µM (inactive), the GI50 [50] was 75 µM (inactive) and the GI50 [51] was 21.7 µM (inactive). For the same molecule, the GI50 [52] was 33.1 µM (inactive), the GI50 [53] was 51.1 µM (inactive) and the GI50 [54] was > 100 µM (inactive). The GI50 [55] was 46.1 µM (inactive), the GI50 [56] was 73.6 µM (inactive) and the GI50 [57] was 67.1 µM (inactive). For the same molecule, the GI50 [58] was 62.8 µM (inactive).
In the case of `COc1ccccc1NC(=S)N/N=C/c1ccccn1`, the GI50 [1] was 0.157 µM (active), the GI50 [2] was 0.255 µM (active) and the GI50 [3] was 0.564 µM (active). For the same molecule, the GI50 [4] was 0.11 µM (active), the GI50 [5] was 1.77 µM (inactive) and the GI50 [6] was 0.0817 µM (active). For the same molecule, the GI50 [59] was 0.276 µM (active), the GI50 [7] was 0.0352 µM (active) and the GI50 [8] was 1.88 µM (inactive). The GI50 [9] was 0.293 µM (active), the GI50 [10] was 2.37 µM (inactive) and the GI50 [11] was < 0.0204 µM (active). For the same molecule, the GI50 [12] was 0.227 µM, the GI50 [13] was 0.0214 µM (active) and the GI50 [14] was 0.247 µM (active). The GI50 [15] was 1.26 µM (inactive), the GI50 [16] was < 0.01 µM (active) and the GI50 [17] was 14.3 µM (inactive). For the same molecule, the GI50 [19] was < 0.0187 µM (active), the GI50 [20] was 0.597 µM (active) and the GI50 [21] was 0.0927 µM (active). For the same molecule, the GI50 [22] was 0.0692 µM (active), the GI50 [23] was 0.0504 µM (active) and the GI50 [24] was < 0.0166 µM (active). For the same molecule, the GI50 [25] was 1.61 µM (inactive), the GI50 [26] was 1.29 µM (inactive) and the GI50 [27] was 0.0115 µM (active). For the same molecule, the GI50 [28] was 0.193 µM (active), the GI50 [29] was 2.12 µM (inactive) and the GI50 [30] was 0.0746 µM (active). The GI50 [31] was 0.495 µM (active), the GI50 [32] was < 0.0157 µM (active) and the GI50 [33] was 0.0253 µM (active). The GI50 [34] was < 0.015 µM (active), the GI50 [35] was 0.619 µM (active) and the GI50 [36] was 0.288 µM (active). For the same molecule, the GI50 [37] was 0.131 µM (active), the GI50 [38] was 0.054 µM (active) and the GI50 [39] was 0.0658 µM (active). For the same molecule, the GI50 [40] was 10.9 µM (inactive), the GI50 [41] was 0.191 µM (active) and the GI50 [42] was 0.621 µM (active). The GI50 [43] was 0.91 µM (active), the GI50 [44] was 1.56 µM (inactive) and the GI50 [45] was 2.54 µM (inactive). The GI50 [46] was 0.252 µM (active), the GI50 [47] was 0.446 µM (active) and the GI50 [48] was 0.74 µM (active). For the same molecule, the GI50 [49] was 4.17 µM (inactive), the GI50 [50] was 3.37 µM (inactive) and the GI50 [51] was 0.71 µM (active). The GI50 [52] was 0.124 µM (active), the GI50 [53] was 0.0867 µM (active) and the GI50 [54] was 0.367 µM (active). The GI50 [55] was 0.12 µM (active), the GI50 [56] was < 0.0318 µM (active) and the GI50 [57] was 0.466 µM (active). The GI50 [58] was 0.296 µM (active).
